Laboratory results reported in patent US11535598B2, “Histone deacetylases (HDACs) inhibitors” (ANNJI PHARMACEUTICAL CO., LTD., priority 2017, dated 2022).
Where two headings read alike, the source gives them in different places.

Legend:
U87MG [1] = assay: Cell proliferation assay MTT, U87MG; conditions: read-out: Cytotoxicity IC50 Glioblastoma U87MG, 72 hr treated
Method: (§5) Cells were seeded in 96-well plates at a density of 5×10^3 cells per well and allowed to attach for 24 h before compound treatment. […] At end of the treatment period 72 h, 20 μl (5 mg/mL) 3-(4,5-dimethylthiazol-2-yl)-2,5-diphenyl-tetrazolium bromide (MTT) reagent was added each well. After 4 h incubation at 37° C., the supernatant was aspirated and the formazan crystals were dissolved in 100 μl of DMSO at 37° C. for 10 min with gentle agitation. The absorbance was measured at 570 nm using the Molecular Devices Microplate Reader. […] IC50 values were calculated from the relative viability values and concentrations by regression analysis.

Human HDAC1 = Human HDAC1 (Homo sapiens (Human), UniProt Q13547); assay: HDAC enzymatic assay, HDAC1; format: biochemical; conditions: 10-dose IC50 mode with a 3-fold serial dilution; read-out: HDAC subtypes IC50 HDAC1
Human HDAC1, sequence (Q13547 whole entry): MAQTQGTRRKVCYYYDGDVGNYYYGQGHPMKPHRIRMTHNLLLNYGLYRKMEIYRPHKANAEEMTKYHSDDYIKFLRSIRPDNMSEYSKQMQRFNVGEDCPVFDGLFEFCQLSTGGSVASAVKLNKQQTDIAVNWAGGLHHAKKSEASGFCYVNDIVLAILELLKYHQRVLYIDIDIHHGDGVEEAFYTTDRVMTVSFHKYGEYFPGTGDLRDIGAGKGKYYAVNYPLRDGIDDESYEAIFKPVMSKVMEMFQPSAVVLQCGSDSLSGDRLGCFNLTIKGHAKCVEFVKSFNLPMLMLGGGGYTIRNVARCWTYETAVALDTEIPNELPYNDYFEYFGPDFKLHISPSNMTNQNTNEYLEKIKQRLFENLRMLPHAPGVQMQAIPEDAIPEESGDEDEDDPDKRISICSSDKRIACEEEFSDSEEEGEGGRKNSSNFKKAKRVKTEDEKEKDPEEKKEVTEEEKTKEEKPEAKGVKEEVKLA
Method: (§1) The IC50 values for aforementioned compounds against HDACs were determined. HDAC 1 to 11 can be assayed by using acetylated AMC-labeled peptide substrate.
(§2) Human HDAC1 GenBank Accession No. NM_004964): Full length with C-terminal GST tag, MW=79.9 kDa, Human HDAC2 (GenBank Accession No. Q92769): Full length with C-terminal His tag, MW=60 kDa. Human HDAC3/NcoR2 (GenBank Accession No. […] for HDAC3, GenBank Accession No. NM_006312 for NcoR2): Complex of human HDAC3, full length with C-terminal His tag, MW=49.7 kDa, and human NCOR2, N-terminal GST tag, MW=39 kDa. Human HDAC6 (GenBank Accession No. BC069243): Full length with N-terminal GST tag, MW=159 kDa. Human HDAC8 (GenBank Accession No. NM018486): Full length, MW=42 kDa, expressed in an E. coli expression system.
(§3) Human HDAC1, Human HDAC2, Human HDAC3/NcoR2, Human HDAC6, Human HDAC10, and Human HDAC11 were all expressed by baculovirus expression system in Sf9 cells.
(§4) 50 μM HDAC substrate. 1% DMSO final. Incubation for 2 hours at 30° C.

HL60 = assay: Cell proliferation assay MTT, HL60; conditions: read-out: Cytotoxicity IC50 Leukemia HL60, 72 hr treated
Method: as §5

A549 [2] = assay: Cell proliferation assay MTT, A549; conditions: read-out: Cytotoxicity IC50 Lung A549, 72 hr treated
LNCap [3] = assay: Cell proliferation assay MTT, LNCaP; conditions: read-out: Cytotoxicity IC50 Prostate LNCap, 72 hr treated
Method: as §5

Human HDAC6 = Human HDAC6 (Homo sapiens (Human), UniProt Q9UBN7); assay: HDAC enzymatic assay, HDAC6; format: biochemical; conditions: 10-dose IC50 mode with a 3-fold serial dilution; read-out: HDAC subtypes IC50 HDAC6
Human HDAC6, sequence (Q9UBN7 whole entry): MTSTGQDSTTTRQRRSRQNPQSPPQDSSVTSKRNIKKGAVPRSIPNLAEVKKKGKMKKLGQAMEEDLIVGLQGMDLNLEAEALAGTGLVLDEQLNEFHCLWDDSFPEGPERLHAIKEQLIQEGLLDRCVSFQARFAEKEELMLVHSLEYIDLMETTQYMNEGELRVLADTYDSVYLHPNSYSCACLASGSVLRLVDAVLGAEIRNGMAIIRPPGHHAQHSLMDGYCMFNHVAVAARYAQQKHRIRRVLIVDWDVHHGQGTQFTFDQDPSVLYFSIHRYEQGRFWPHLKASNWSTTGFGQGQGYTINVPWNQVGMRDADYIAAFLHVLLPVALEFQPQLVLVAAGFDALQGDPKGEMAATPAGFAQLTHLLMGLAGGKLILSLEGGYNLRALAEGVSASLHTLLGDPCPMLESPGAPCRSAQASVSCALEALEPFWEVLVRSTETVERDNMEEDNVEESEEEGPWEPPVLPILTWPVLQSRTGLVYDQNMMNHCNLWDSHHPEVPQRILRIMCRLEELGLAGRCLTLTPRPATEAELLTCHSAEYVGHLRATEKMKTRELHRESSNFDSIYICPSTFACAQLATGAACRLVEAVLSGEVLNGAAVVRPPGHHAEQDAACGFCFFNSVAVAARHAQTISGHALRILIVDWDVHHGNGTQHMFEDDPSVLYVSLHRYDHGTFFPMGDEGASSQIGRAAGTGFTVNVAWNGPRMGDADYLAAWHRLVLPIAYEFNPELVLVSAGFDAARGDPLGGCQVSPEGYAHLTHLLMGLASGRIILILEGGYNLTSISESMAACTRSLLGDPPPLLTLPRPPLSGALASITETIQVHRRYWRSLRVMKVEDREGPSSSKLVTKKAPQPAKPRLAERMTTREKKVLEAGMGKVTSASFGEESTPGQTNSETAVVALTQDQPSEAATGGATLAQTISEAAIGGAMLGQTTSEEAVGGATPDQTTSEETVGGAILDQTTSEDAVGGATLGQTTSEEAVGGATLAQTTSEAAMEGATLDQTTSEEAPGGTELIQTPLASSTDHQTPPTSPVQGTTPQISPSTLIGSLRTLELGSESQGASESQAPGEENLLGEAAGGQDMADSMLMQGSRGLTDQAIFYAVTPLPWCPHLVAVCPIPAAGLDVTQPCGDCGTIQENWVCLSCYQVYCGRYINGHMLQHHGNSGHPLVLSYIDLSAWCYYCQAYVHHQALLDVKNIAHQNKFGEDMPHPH
Method: as §1, §2, §3, §4

Human HDAC8 = Human HDAC8 (Homo sapiens (Human), UniProt Q9BY41); assay: HDAC enzymatic assay, HDAC8; format: biochemical; conditions: 10-dose IC50 mode with a 3-fold serial dilution; read-out: HDAC subtypes IC50 HDAC8
Human HDAC8, sequence (Q9BY41 whole entry): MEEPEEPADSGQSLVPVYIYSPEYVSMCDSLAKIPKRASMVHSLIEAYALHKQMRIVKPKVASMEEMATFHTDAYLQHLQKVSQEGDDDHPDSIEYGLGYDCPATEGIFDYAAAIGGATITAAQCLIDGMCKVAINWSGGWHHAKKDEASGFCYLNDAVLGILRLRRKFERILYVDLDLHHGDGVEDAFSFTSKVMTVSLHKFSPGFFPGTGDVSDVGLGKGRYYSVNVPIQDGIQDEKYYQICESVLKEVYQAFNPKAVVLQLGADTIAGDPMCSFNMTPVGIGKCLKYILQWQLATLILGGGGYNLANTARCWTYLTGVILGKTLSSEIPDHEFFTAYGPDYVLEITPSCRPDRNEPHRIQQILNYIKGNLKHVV
Method: as §1, §2, §4

MOLM13 = assay: Cell proliferation assay MTT, MOLM13
Method: as §5

in vitro [4] = conditions: human
Method: as §5

HepG2 [5] = assay: Cell proliferation assay MTT, HepG2; conditions: read-out: Cytotoxicity IC50 Liver HepG2, 72 hr treated
Method: as §5

in vitro [6] = conditions: monkey
Method: as §5

MV4-11 = assay: Cell proliferation assay MTT, MV4-11
Method: as §5

PANC1 [7] = assay: Cell proliferation assay MTT, PANC1; conditions: read-out: Cytotoxicity IC50 Pancreas PANC1, 72 hr treated
Method: as §5

Human HDAC11 = Human HDAC11 (Homo sapiens (Human), UniProt Q96DB2); assay: HDAC enzymatic assay, HDAC11; format: biochemical; conditions: 10-dose IC50 mode with a 3-fold serial dilution; read-out: HDAC subtypes IC50 HDAC11
Human HDAC11, sequence (Q96DB2 whole entry): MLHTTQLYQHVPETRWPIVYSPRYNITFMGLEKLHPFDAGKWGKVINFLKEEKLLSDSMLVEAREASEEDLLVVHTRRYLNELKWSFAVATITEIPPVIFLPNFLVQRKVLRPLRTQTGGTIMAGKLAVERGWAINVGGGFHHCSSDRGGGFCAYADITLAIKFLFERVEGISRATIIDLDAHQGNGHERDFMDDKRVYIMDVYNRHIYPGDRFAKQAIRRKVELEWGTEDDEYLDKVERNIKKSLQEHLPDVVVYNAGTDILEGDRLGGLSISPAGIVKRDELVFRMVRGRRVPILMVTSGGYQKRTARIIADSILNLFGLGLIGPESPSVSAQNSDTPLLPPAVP
Method: as §1, §2, §3, §4

HepG2 [8] = conditions: human, 72 h
Method: as §5

A549 [9] = conditions: human, 72 h
U87MG [10] = conditions: human, 72 h
Method: as §5

PANC1 [11] = conditions: human, 72 h
Method: as §5

LNCap [12] = conditions: human, 72 h
Method: as §5

Vero = assay: Cell proliferation assay MTT, Vero normal cells; conditions: read-out: Cytotoxicity IC50 Monkey normal Vero, 72 hr treated
Method: as §5

FHsWe = assay: Cell proliferation assay MTT, FHsWe normal cells; conditions: read-out: Cytotoxicity IC50 Human normal FHsWe, 72 hr treated
Method: as §5

[13] = read-out: Cytotoxicity IC50 Leukemia MOLM13, MTT assay, 72 hr treated
[14] = read-out: Cytotoxicity IC50 Leukemia MV4-11, MTT assay, 72 hr treated
[15] = human, MOLM13 leukemia cells, 72 h
[16] = human, MV4-11 leukemia cells, 72 h

Row | SMILES | IC50 (U87MG [1]) [µM] | IC50 (Human HDAC1) [µM] | IC50 (HL60) [µM] | IC50 (A549 [2]) [µM] | IC50 (LNCap [3]) [µM] | IC50 (Human HDAC6) [µM] | IC50 (Human HDAC8) [µM] | IC50 (MOLM13; [13]) [µM] | IC50 at 72 h (in vitro [4]; FHs173We normal cells) [µM] | IC50 (HepG2 [5]) [µM] | IC50 at 72 h (in vitro [6]; Vero normal cells) [µM] | IC50 (MV4-11; [14]) [µM] | IC50 (PANC1 [7]) [µM] | IC50 (Human HDAC11) [µM] | other results
1 | N#Cc1ccc2c(=O)n(CCc3ccccc3)c(=O)n(Cc3ccc(C(=O)NO)cc3)c2c1 [Compound 3, 4-((7-cyano-2,4-dioxo-3-phenethyl-3,4-dihydroquinazolin-1(2H)-yl)methyl)-N-hydroxybenzamide] | > 10 | 12 | > 10 | > 10 | > 10 | 13.5 | 1.3 | > 10 | > 200 | > 10 | > 10 | > 10 | > 10 |  | 
2 | O=C(NO)c1ccc(Cn2c(=O)n(CCc3ccccc3)c(=O)c3ccccc32)cc1 [Compound 5, 4-((2,4-dioxo-3-phenethyl-3,4-dihydroquinazolin-1(2H)-yl)methyl)-N-hydroxybenzamide] | 1.56 ± 0.14 | 11.2 | 0.25 ± 0.03 | 3.75 ± 0.39 | 0.44 ± 0.07 | 0.004 | 0.376 | 0.16 ± 0.03 | 83.21 ± 0.62 | 1.93 ± 0.25 | 91.38 ± 0.47 | 0.17 ± 0.05 | 4.15 ± 0.27 | 13.9 | 
3 | O=C(NO)c1ccc(Cn2c(=O)n(CCc3ccccc3)c(=O)c3cc(Cl)ccc32)cc1 [Compound 9, 4-((6-chloro-2,4-dioxo-3-phenethyl-3,4-dihydroquinazolin-1(2H)-yl)methyl)-N-hydroxybenzamide] | 2.26 ± 0.13 | 18.9 | 2.71 ± 0.05 | 2.45 ± 0.51 | 1.01 ± 0.11 | 0.035 |  | 2.82 ± 0.07 | 70.34 ± 0.12 | 2.03 ± 0.47 | 77.51 ± 0.14 | 2.78 ± 0.03 | 4.05 ± 0.12 |  | 
4 | O=C(NO)c1ccc(Cn2c(=O)n(CCc3ccccc3)c(=O)c3ccc(C(F)(F)F)cc32)cc1 [Compound 13, 4-((2,4-dioxo-3-phenethyl-7-(trifluoromethyl)-3,4-dihydroquinazolin-1(2H)-yl)methyl)-N-hydroxybenzamide] | 5.87 ± 0.14 | 8.02 | 0.87 ± 0.12 | 7.22 ± 0.29 | 5.92 ± 0.21 | 0.635 | 1.44 | 0.92 ± 0.07 | 131.7 ± 0.25 | 5.48 ± 0.27 | 146.2 ± 0.41 | 0.83 ± 0.11 | 8.29 ± 0.43 | 7.39 | 
5 | COc1ccccc1CCn1c(=O)c2ccccc2n(Cc2ccc(C(=O)NO)cc2)c1=O [Compound 15, N-hydroxy-4-((3-(2-methoxyphenethyl)-2,4-dioxo-3,4-dihydroquinazolin-1(2H)-yl)methyl)benzamide] | 7.08 ± 0.8 |  | 1.22 ± 0.08 | 5.69 ± 0.21 | 5.71 ± 0.32 | 0.011 | 0.525 | 1.47 ± 0.07 | 55.44 ± 0.09 | 7.11 ± 0.28 | 96.92 ± 0.11 | 1.65 ± 0.03 | > 10 | 34.4 | 
6 | Cc1ccc2c(=O)n(CCc3ccccc3)c(=O)n(Cc3ccc(C(=O)NO)cc3)c2c1 [Compound 22, N-hydroxy-4-((7-methyl-2,4-dioxo-3-phenethyl-3,4-dihydroquinazolin-1(2H)-yl)methyl)benzamide] |  | 10.9 | 1.46 ± 0.08 |  |  | 0.17 | 2.52 |  |  |  |  |  |  | 52.1 | IC50 (HepG2 [8]): 6.82 ± 0.44 µM; IC50 (A549 [9]): 7.44 ± 0.12 µM; IC50 (U87MG [10]): 5.68 ± 0.19 µM; IC50 (MOLM13; [15]): 1.77 ± 0.05 µM; IC50 (PANC1 [11]): 8.73 ± 0.71 µM; IC50 at 72 h (in vitro [4]): 135.1 ± 0.39 µM; IC50 at 72 h (in vitro [6]): 127.4 ± 0.28 µM; IC50 (MV4-11; [16]): 1.64 ± 0.07 µM; IC50 (LNCap [12]): 5.38 ± 0.41 µM
7 | O=C(NO)c1ccc(Cn2c(=O)n(CCc3cccc(F)c3)c(=O)c3ccccc32)cc1 [Compound 26, 4-((3-(3-fluorophenethyl)-2,4-dioxo-3,4-dihydroquinazolin-1(2H)-yl)methyl)-N-hydroxybenzamide] |  | 13.2 | 3.12 ± 0.08 |  |  | 0.01 | 0.428 |  |  |  |  |  |  | 10.7 | IC50 (HepG2 [8]): 4.03 ± 0.11 µM; IC50 (A549 [9]): 4.58 ± 0.21 µM; IC50 (U87MG [10]): 3.77 ± 0.25 µM; IC50 (MOLM13; [15]): 4.01 ± 0.06 µM; IC50 (PANC1 [11]): 5.03 ± 0.19 µM; IC50 at 72 h (in vitro [4]): 84.34 ± 0.73 µM; IC50 at 72 h (in vitro [6]): 93.26 ± 0.25 µM; IC50 (MV4-11; [16]): 3.71 ± 0.11 µM; IC50 (LNCap [12]): 0.96 ± 0.02 µM
8 | O=C(CCCCCCC(=O)Nc1ccccc1)NO [SAHA, reference compound] |  |  | 1.85 ± 0.08 |  |  |  |  |  |  |  |  |  |  |  | IC50 (Vero): 26.6 µM
9 | CN1CCc2c(c3ccccc3n2Cc2ccc(C(=O)NO)cc2)C1 [Tubastatin A, reference compound] | > 10 |  |  | > 10 | > 10 |  |  |  |  | > 10 |  |  | > 10 |  | IC50 (Vero): 39.9 µM; IC50 (FHsWe): 46.5 µM
